Source: patent publication US20030232868A1, “Cyclic carboxylic acids as integrin antagonists” (priority 2000, published 2003)
Where two headings read alike, the source gives them in different places.

Key:
[1] = tested on: adhesion of Ramos cells to VCAM-1; test: Adhesion of Ramos cells to immobilized VCAM-1 (domains 1-3) (Ramos—VCAM-1 assay); assay type: cell-based; settings: Homo sapiens
Excerpt: In Vitro Assay: Adhesion of Jurkat/Ramos Cells to Immobilized VCAM-1 (Domains 1-3)
Preparation of VCAM-1 (Extracellular Domains 1-3)
Complementary DNA (cDNA) encoding 7 domain form of VCAM-1 (GenBank accession #M60335) was obtained using Rapid-Screen™ cDNA library panels (OriGene Technologies, Inc) at Takara Gene Analysis Center (Shiga, Japan). The primers used were 5′-CCAAGGCAGAGTACGCAAAC-3′ (sense) and 5′-TGGCAGGTATTATTAAGGAG-3′ (antisense). PCR amplification of the 3 domain VCAM-1 cDNA was perform using Pfu DNA polymerase (Stratagene) with the following sets of primers: (U-VCAMd1-3) 5′-CCATATGGTACCTGATCAATTTAAAATCGAGACCACCCCAGAA-3′; (L-VCAMd1-3) 5′-CCATATAGCAATCCTAGGTCCAGGGGAGATCTCAACAGTAAA-3′. PCR cycle was 94° C. for 45 sec. 55° C. for 45 sec, 72° C. for 2 min, repeating 15 cycles. After the purification of the PCR product, the fragment was digested with KpnI-AvrII. The digested fragment was ligated into pBluescript IISK(−) (Strategene), which was linearized by digesting with KpnI-XhoI. The ligation was followed by transformation to a Dam/Dcm methylase-free E. coli strain SCS110 (Strategene) to create the donor plasmid pHH7. To direct VCAM-1 molecule into the insect cell secretory pathway, the VCAM-1 coding sequence was fused to signal peptide sequence of honeybee melittin. The resulting melittin-VCAM fusion was placed in correct orientation to the baculovirus polyhedrin promoter. Baculovirus transfer vector containing first 3-domain form VCAM-1 (pH 10) was constructed by ligation of 0.9 kb fragment from AvrII/Klenow/BclI digests of pH 7 into SalI/Klenow/BamHI digests of pMelBacB Invitrogen). Recombinant baculovirus was generated by using Bac-N-Blue™ Transfection kit (Invitrogen) according to the manufacture's instruction. The recombinant virus was amplified by infection to High-Five™ insect cells for 5-6 days, and virus titer was determined by plaque assay.
High-Five™ insect cells were pelleted in a 225 ml conical tube by centrifugation at 1000 rpm for 5 min. After discarding the supernatant, the pellet was resuspended in 1.5×10^9 pfu (MOI=5) of high-titer virus solution, followed by incubation for 1.5 hours at room temperature. The cells were pelleted again and washed once in fresh Express Five™ serum free medium. The cells were pelleted again and finally, resuspended in 200 ml of fresh Express Five TM medium, transferred to a 1,000 ml shaker flask, and incubated in a shaker at 27° C., 130 rpm, for 48 hours before the culture supernatant was collected. The purification of 3-domain form of VCAM-1 from the culture supernatant was performed by one-step anion exchange chromatography. Protein concentration was determined by using Coomassie protein assay reagent (Pierce) according to the manufacture's instruction.
Preparation of VCAM-1 Coated Microtiter Plates
Recombinant human VCAM-1 (extracellular domains 1-3) was dissolved at 1.0 μg/1 ml in PBS. Each well of the microtiter plates (Nalge Nunc International, Fluoro-nunc Cert, 437958) was coated with 100 μl of substrate or for background control with buffer alone for 15 hours at 4 C. After discarding the substrate solution, the wells were blocked using 150 μl per well of block solution Kirkegaard Perry Laboratories, 50-61-01) for 90 minutes. The plate was washed with wash buffer containing 24 mM Tris-HCl (pH 7.4), 137 mM NaCl, […] and 2 MM MnCl2 just before addition of the assay.
In Vitro Assay using Ramos Cells
Preparation of Fluorescence Labeled Ramos Cells:
Ramos cells (American Type Culture Collection, Clone CRL-1596) were cultured in RPMI 1640 medium (Nikken Bio Medical Laboratory, CM1101) supplemented with 10% fetal bovine serum (Hyclone, A-1119-L), 100 U/ml penicilin (Gibco BRL, 15140-122) and 100 μg/ml streptomycin (Gibco BRL, 15140-122) in a humidified incubator at 37° C. with 5% CO2. […]

IC50 ([1]; Cell Type Ramos, adhesion to VCAM-1 coated plates, 1 hour at 37 C, IC50 value ranges, read-out: IC50) [nM] | melting point [°C] | IC50 ([1]; Ramos, 1 h) [nM] | Compound
< 500 | 168 to 169 |  | Cc1ccccc1NC(=O)Nc1ccc(CC(=O)N[C@@H](CCCCN)C(=O)Nc2ccc(C(=O)O)cc2)cc1.O=C(O)C(F)(F)F [Example 58]
 | 210 to 218 | < 500 | COCCCN(CC(=O)Nc1ccc(C(=O)O)cc1)C(=O)Cc1ccc(NC(=O)Nc2ccccc2C)cc1 [Example 59]
